The nature of data set [1]: Cytotoxicity in human HepG2.215 cells assessed as reduction in cell viability after 5 days by CCK8 assay. Type of data set: cell-based, HepG2 2.2.15. As to conditions: HepG2.2.15 cells. A general note: Formazan colour is commonly taken as a measure of viable cells.
For data set [2], the system named is Hepatitis B virus. The data set can be described thus: Antiviral activity against lamivudine-resistant wild type hepatitis B virus infected in human Huh7 cells assessed as reduction in intracellular DNA levels measured on day 7 by real-time PCR analysis. Type of data set: functional, organism-based. The following applies: Huh-7, 168 h. A general note: In qPCR the cycle at which signal appears reflects the starting amount.

The test system of data set [3] is Hepatitis B virus. The data set can be described thus: Antiviral activity against lamivudine-resistant hepatitis B virus harboring reverse transcriptase M204I mutant infected in human Huh7 cells assessed as reduction in intracellular DNA levels measured on day 7 by real-time PCR analysis. As to conditions: Huh-7, 168 h. Type of data set: functional, organism-based.

The test system of data set [4] is Hepatitis B virus. The data set can be described thus: Antiviral activity against lamivudine-resistant hepatitis B virus harboring reverse transcriptase M204I/V173L double mutant infected in human Huh7 cells assessed as reduction in intracellular DNA levels measured on day 7 by real-time PCR analysis. Type of data set: functional, organism-based. The following applies: Huh-7, 168 h.

The test system of data set [5] is Hepatitis B virus. The data set can be described thus: Antiviral activity against lamivudine-resistant wild type hepatitis B virus infected in human Huh7 cells assessed as reduction in secreted DNA levels measured on day 7 by real-time PCR analysis. Type of data set: functional, organism-based. The following applies: Huh-7, 168 h.
The test system of data set [6] is Hepatitis B virus. The experiment in a line: Antiviral activity against lamivudine-resistant hepatitis B virus harboring reverse transcriptase M204I mutant infected in human Huh7 cells assessed as reduction in secreted DNA levels measured on day 7 by real-time PCR analysis. Type of data set: functional, organism-based. The following applies: Huh-7, 168 h.
Data set [7] relates to Hepatitis B virus. The data set can be described thus: Antiviral activity against lamivudine-resistant hepatitis B virus harboring reverse transcriptase M204I/V173L double mutant infected in human Huh7 cells assessed as reduction in secreted DNA levels measured on day 7 by real-time PCR analysis. Type of data set: functional, organism-based. The following applies: Huh-7, 168 h.

Data set [8] has as its system Hepatitis B virus. The data set can be described thus: Antiviral activity against hepatitis B virus infected in human HepG2.215 cells assessed as reduction in viral DNA replication measured on day 7 by real time PCR analysis. Type of data set: functional, organism-based. As to conditions: HepG2.2.15, 168 h.
The target of data set [9] is Core antigen (Hepatitis B virus) (UniProt Q03732). The experiment in a line: Inhibition of hepatitis B virus capsid assembly infected in human HepG2.215 cells assessed as reduction in viral DNA replication measured on day 7 by real time PCR analysis. Type of data set: cell-based.

Experimental findings from ChEMBL document CHEMBL4177524, “Discovery of hepatitis B virus capsid assembly inhibitors leading to a heteroaryldihydropyrimidine based clinical candidate (GLS4)” (Bioorg Med Chem, 2017) are described below.

Chain of Core antigen (Hepatitis B virus) (Q03732 as listed by the source): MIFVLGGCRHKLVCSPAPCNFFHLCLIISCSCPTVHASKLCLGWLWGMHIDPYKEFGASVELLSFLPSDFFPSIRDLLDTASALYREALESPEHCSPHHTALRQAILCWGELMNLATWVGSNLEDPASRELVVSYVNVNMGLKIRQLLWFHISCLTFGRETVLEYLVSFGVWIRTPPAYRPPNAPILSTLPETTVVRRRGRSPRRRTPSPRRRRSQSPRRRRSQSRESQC

Consider `C[C@H](Cn1cnc2c(N)ncnc21)OCP(=O)(O)O` [TENOFOVIR ANHYDROUS], for which, in data set [1], the CC50 at 120 h was determined as 399 µM.
For `Nc1ccn([C@@H]2CS[C@H](CO)O2)c(=O)n1` [LAMIVUDINE], the CC50 at 120 h in [1] was determined as 1020 µM. The EC50 with Hepatitis B virus [2] was 0.237 µM; in the data set on Hepatitis B virus [3] it was more than 20 µM; in the data set on Hepatitis B virus [4], more than 20 µM; in the data set on Hepatitis B virus [5], 0.055 µM; in the data set on Hepatitis B virus [6], more than 20 µM; in the data set with Hepatitis B virus [7], more than 20 µM. Further, the EC50 with Hepatitis B virus [8] came to 0.1 µM. For the same molecule, the EC90 with Hepatitis B virus [8] came out at 2 µM.
With `COC(=O)C1=C(C)NC(c2ncc(F)cc2F)=N[C@H]1c1ccc(F)cc1Cl`, the EC90 in data set [9] worked out at 0.102 µM.

Usually CC50 stands for the concentration at which the toxic effect on the cells reaches its halfway point. Usually EC50 stands for the concentration at which the effect is half-maximal. In general, EC90 refers to the concentration at which the effect reaches the 90% level.
